Test results as given in patent US11260100B2, “Compositions targeting the interaction domain between p27Kip1 and Brk and methods of use thereof to inhibit p27 Y phosphorylation and cdk4 activity” (The Research Foundation for the State University of New York, priority 2014, dated 2022).
pIC50: −log10 of the molar value.

Columns and labels:
[1] = test system: MCF7 mock, WT, KM and YF cells; assay: Viability of PD0332991 treated Brk expressing MCF7 lines; format: cell-based, human; conditions: all concentrations of the drug
Excerpt: The PCR fragments were ligated to the T7pGEMEX human His-p27 or T7pGEMEX human Flag-p27 plasmid for expression in E. coli. Mutants Y74F, Y88F, and Y88/89F were previously described (12). Flag-tagged p27 mutants were purified by Flag-immunoprecipitation with Flag antibody (M-2, Sigma F-18C9) and eluted with Flag peptide (Sigma F-4799) according to manufacturer's protocol. His-tagged p27 mutants were purified by FPLC via his-trap affinity chromatography (His-Trap HP, GE Healthcare 71-5247-01). The affinity column was stripped according to manufacturer's protocol, then washed with 5 column volumes of 100 mM CoCl2. The crude material was applied with a loading buffer consisting of 6 M urea, 500 mM NaCl, 50 mM Tris-HCl, pH 7.5 and 20% glycerol. The material was washed with 500 mM NaCl, 50 mM Tris-HCl, pH 7.5 and 10% glycerol. The purified material was eluted with 500 mM imidazole,20 mM Hepes pH 7.4 and 1 M KCl. The protein was then dialyzed overnight in a solution of 25 mM Hepes pH 7.7, 150 mM NaCl, 5 mM MgCl2 and 0.05% NP40. All purified proteins were analyzed by Coomassie and immunoblot analysis. […] Cells were counted using the automated cell counter (BioRad TC-20).Viability was measured by Trypan Blue staining and counted using the cell counter. • Immunoprecipitation. […]

HCC1954 (ER/PR-, Her2+) = assay: Palbociclib sensitivity of breast cancer line; format: cell-based; conditions: Homo sapiens; HCC1954, non-responder
cdk2 = target: T1, cdk2 (Homo sapiens, UniProt P24941); assay: Immunoblot of cdk2T160 as measure of activated cdk2 (FIG. 10); format: cell-based; conditions: MCF7, drugs at IC50
T1 construct: added to or expressed in MCF7 breast cancer cells on day 2 post plating; endogenous in cells; host or cells: MCF7 (ALT-MCF7 tetracycline-inducible line)
Method: FIG. 10: ALT BRK inhibits both CDK4 and CDK2. ALT, Palbociclib alone or in combination were added to or expressed in MCF7 breast cancer cells on day 2 post plating. Drugs were added at their IC50 concentration, based on previous results. ALT is expressed from an ALT-MCF7 tetracycline inducible cell line generated in the Blain lab. When tetracycline is added to the cell culture media, ALT is expressed in these cells. Vector: no tetracycline was added, so no ALT induction was detected. Drugs and media were replaced every two days. Cells were harvested every two days, lysed and used in immunoblot analysis. Actin: loading control. pRBser780 is a phospho-specific antibody that recognizes sites phosphorylated by cdk4, so is a measure of active cdk4. cdk2T160 recognizes a required phosphorylation event on residue […] and is a measure of activated cdk2.
Additional experiments were performed assessing activity of Brk in combination with Palbociclib. The data presented in FIGS. 9A and 9B reveal that Palbociclib and Brk inhibit proliferation for 2 days, and then resistance is observed (proliferation increases). Alt maintained arrest for roughly 10 days (50% inhibition of proliferation is detected). […] Alt-Brk/Palbociclib combination leads to a more durable cell cycle arrest. Mono therapy treated cells start to become resistant between day 8-10. […]

pIC50 (HCC1954 (ER/PR-, Her2+)): < 6.00
cdk2 activity (cdk2T160) (cdk2): does not inhibit cdk2
SMILES: CC(=O)c1c(C)c2cnc(Nc3ccc(N4CCNCC4)cn3)nc2n(C2CCCC2)c1=O [PD0332991]
viability [1]: unchanged
